According to PubChem BioAssay AID1845205 (Molecular Pharmacology Branch, DTP, NCI, 2023):

Test system: MPNST multicellular tumor spheroids, viability % test/control
Assay: Anticancer human tumor MPNST cell line growth inhibition;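 also: spheroids exposed to agents for seven days after three days of growth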;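 as to viability, T/C: luminescence signal used as surrogate for viable cell amount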
Settings: for IC50: curve of first compound; for viability, T/C: stronger effect = lower value
In short: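 Single agents and combinations were tested on spheroids built from tumor cells plus HUVEC and hMSC, at half-log dilutions starting at or near clinical Cmax, else 10 microM; final DMSO 0.25% (v/v).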

CNCc1ccc(-c2cc(-c3nc(-c4ccc(S(=O)(=O)C(C)C)cc4)cnc3N)on2)cc1 + COc1cc2c(cc1O)CCNC21CSC2c3c(OC(C)=O)c(C)c4c(c3C(COC1=O)N1C(O)C3Cc5cc(C)c(OC)c(O)c5C(C21)N3C)OCO4
IC50 (second compound 30 pM): 283 nM
IC50 (second compound 94.9 pM): > 3000 nM
IC50 (second compound 0.0003 µM): 96.6 nM
IC50 (second compound 0.000949 µM): < 9.49 nM
IC50 (second compound 0.003 µM): < 9.49 nM
viability, T/C (second compound 30 pM, first compound 0.00949 µM): 83.5%
viability, T/C (second compound 30 pM, first compound 0.03 µM): 105%
viability, T/C (second compound 30 pM, first compound 0.0949 µM): 63.5%
viability, T/C (second compound 30 pM, first compound 0.3 µM): 54.8%
viability, T/C (second compound 30 pM, first compound 0.949 µM): 47.2%
viability, T/C (second compound 30 pM, first compound 3 µM): 45.9%
viability, T/C (second compound 94.9 pM, first compound 0.00949 µM): 79%
viability, T/C (second compound 94.9 pM, first compound 0.03 µM): 74%
viability, T/C (second compound 94.9 pM, first compound 0.0949 µM): 70.4%
viability, T/C (second compound 94.9 pM, first compound 0.3 µM): 55.6%
viability, T/C (second compound 94.9 pM, first compound 0.949 µM): 49.7%
viability, T/C (second compound 94.9 pM, first compound 3 µM): 53.6%
viability, T/C (second compound 0.0003 µM, first compound 0.00949 µM): 68.1%
viability, T/C (second compound 0.0003 µM, first compound 0.03 µM): 70.8%
viability, T/C (second compound 0.0003 µM, first compound 0.0949 µM): 50.1%
viability, T/C (second compound 0.0003 µM, first compound 0.3 µM): 42.4%
viability, T/C (second compound 0.0003 µM, first compound 0.949 µM): 46.3%
viability, T/C (second compound 0.0003 µM, first compound 3 µM): 46.8%
viability, T/C (second compound 0.000949 µM, first compound 0.00949 µM): 39%
viability, T/C (second compound 0.000949 µM, first compound 0.03 µM): 39.5%
viability, T/C (second compound 0.000949 µM, first compound 0.0949 µM): 38.5%
viability, T/C (second compound 0.000949 µM, first compound 0.3 µM): 36.2%
viability, T/C (second compound 0.000949 µM, first compound 0.949 µM): 46%
viability, T/C (second compound 0.000949 µM, first compound 3 µM): 48.6%
viability, T/C (second compound 0.003 µM, first compound 0.00949 µM): 6.71%
viability, T/C (second compound 0.003 µM, first compound 0.03 µM): 17.8%
viability, T/C (second compound 0.003 µM, first compound 0.0949 µM): 18.7%
viability, T/C (second compound 0.003 µM, first compound 0.3 µM): 8.25%
viability, T/C (second compound 0.003 µM, first compound 0.949 µM): 12.3%
viability, T/C (second compound 0.003 µM, first compound 3 µM): 8.15%

Cc1cc(C)c(CNC(=O)c2cc(-c3ccc(CN4CCOCC4)cc3)cc3c2cnn3C2CCCC2)c(=O)[nH]1 + Cn1nnc2c(C(N)=O)ncn2c1=O
IC50 (second compound 1 µM): > 10000 nM
IC50 (second compound 3.16 µM): > 10000 nM
IC50 (second compound 10 µM): > 10000 nM
IC50 (second compound 31.6 µM): > 10000 nM
IC50 (second compound 100 µM): > 10000 nM
viability, T/C (second compound 1 µM, first compound 0.0316 µM): 95.9%
viability, T/C (second compound 1 µM, first compound 0.1 µM): 82.8%
viability, T/C (second compound 1 µM, first compound 0.316 µM): 101%
viability, T/C (second compound 1 µM, first compound 1 µM): 92.7%
viability, T/C (second compound 1 µM, first compound 3.16 µM): 115%
viability, T/C (second compound 1 µM, first compound 10 µM): 98.6%
viability, T/C (second compound 3.16 µM, first compound 0.0316 µM): 141%
viability, T/C (second compound 3.16 µM, first compound 0.1 µM): 96.7%
viability, T/C (second compound 3.16 µM, first compound 0.316 µM): 116%
viability, T/C (second compound 3.16 µM, first compound 1 µM): 109%
viability, T/C (second compound 3.16 µM, first compound 3.16 µM): 103%
viability, T/C (second compound 3.16 µM, first compound 10 µM): 104%
viability, T/C (second compound 10 µM, first compound 0.0316 µM): 75.3%
viability, T/C (second compound 10 µM, first compound 0.1 µM): 90.9%
viability, T/C (second compound 10 µM, first compound 0.316 µM): 107%
viability, T/C (second compound 10 µM, first compound 1 µM): 91%
viability, T/C (second compound 10 µM, first compound 3.16 µM): 109%
viability, T/C (second compound 10 µM, first compound 10 µM): 103%
viability, T/C (second compound 31.6 µM, first compound 0.0316 µM): 103%
viability, T/C (second compound 31.6 µM, first compound 0.1 µM): 85.8%
viability, T/C (second compound 31.6 µM, first compound 0.316 µM): 111%
viability, T/C (second compound 31.6 µM, first compound 1 µM): 107%
viability, T/C (second compound 31.6 µM, first compound 3.16 µM): 103%
viability, T/C (second compound 31.6 µM, first compound 10 µM): 99.5%
viability, T/C (second compound 100 µM, first compound 0.0316 µM): 99.1%
viability, T/C (second compound 100 µM, first compound 0.1 µM): 97.5%
viability, T/C (second compound 100 µM, first compound 0.316 µM): 96.9%
viability, T/C (second compound 100 µM, first compound 1 µM): 109%
viability, T/C (second compound 100 µM, first compound 3.16 µM): 97.9%
viability, T/C (second compound 100 µM, first compound 10 µM): 88.4%
